Results as given in ChEMBL document CHEMBL1201861, “Genomics of Drug Sensitity in Cancer screening data, Wellcome Trust Sanger Institute”.

Legend:
Experiment in all cases: cells
Type in all cases: functional, cell-based, Homo sapiens
KLE = conditions: Homo sapiens, KLE;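 note: growth inhibition of human KLE cells, read out with a cell viability assay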
Description: SANGER: Inhibition of human KLE cell growth in a cell viability assay.

LB831-BLC = conditions: Homo sapiens, LB831-BLC;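 note: growth inhibition of LB831-BLC cells, read out with a cell viability assay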
Description: SANGER: Inhibition of human LB831-BLC cell growth in a cell viability assay.

LB2241-RCC = conditions: Homo sapiens, LB2241-RCC;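 note: cell viability assay measuring how strongly the cultured human renal carcinoma line is prevented from growing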
Description: SANGER: Inhibition of human LB2241-RCC cell growth in a cell viability assay.

CGTH-W-1 = conditions: Homo sapiens, CGTH-W-1;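 note: growth inhibition of human CGTH-W-1 cells measured by cell viability assay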
Description: SANGER: Inhibition of human CGTH-W-1 cell growth in a cell viability assay.

LB373-MEL-D = conditions: Homo sapiens, LB373-MEL-D;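 note: growth inhibition of the cell line, read out in a cell viability assay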
Description: SANGER: Inhibition of human LB373-MEL-D cell growth in a cell viability assay.

NMC-G1 = conditions: Homo sapiens, NMC-G1;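 note: growth inhibition of the NMC-G1 cell line, measured with a cell viability read-out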
Description: SANGER: Inhibition of human NMC-G1 cell growth in a cell viability assay.

TGBC24TKB = conditions: Homo sapiens, TGBC24TKB;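 note: growth inhibition of human TGBC24TKB cells, read out with a cell viability assay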
Description: SANGER: Inhibition of human TGBC24TKB cell growth in a cell viability assay.

VA-ES-BJ = conditions: Homo sapiens, VA-ES-BJ;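 note: growth inhibition of the VA-ES-BJ cell line, read out by a cell viability assay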
Description: SANGER: Inhibition of human VA-ES-BJ cell growth in a cell viability assay.

GI-ME-N = conditions: Homo sapiens, GI-ME-N;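 note: growth inhibition of human GI-ME-N cells, read out with a cell viability assay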
Description: SANGER: Inhibition of human GI-ME-N cell growth in a cell viability assay.

LB1047-RCC = conditions: Homo sapiens, LB1047-RCC;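 note: inhibition of cell growth, determined with a cell viability assay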
Description: SANGER: Inhibition of human LB1047-RCC cell growth in a cell viability assay.

ONS-76 = conditions: Homo sapiens, ONS-76;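 note: growth inhibition of human ONS-76 cells, read out with a cell viability assay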
Description: SANGER: Inhibition of human ONS-76 cell growth in a cell viability assay.

SW 962 = conditions: Homo sapiens, SW 962;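 note: growth inhibition of human SW962 cells, read out by a cell viability assay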
Description: SANGER: Inhibition of human SW962 cell growth in a cell viability assay.

NB17 = conditions: Homo sapiens, NB17;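 note: growth inhibition of NB17 cells, read out with a cell viability assay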
Description: SANGER: Inhibition of human NB17 cell growth in a cell viability assay.

SK-UT-1 = conditions: Homo sapiens, SK-UT-1;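 note: growth inhibition of SK-UT-1 cells, measured by a cell viability assay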
Description: SANGER: Inhibition of human SK-UT-1 cell growth in a cell viability assay.

ES8 = conditions: Homo sapiens, ES8;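 note: growth inhibition of human ES8 cells, read out with a cell viability assay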
Description: SANGER: Inhibition of human ES8 cell growth in a cell viability assay.

KALS-1 = conditions: Homo sapiens, KALS-1;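 note: growth inhibition of KALS-1 cells, determined with a cell viability assay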
Description: SANGER: Inhibition of human KALS-1 cell growth in a cell viability assay.

KGN = conditions: Homo sapiens, KGN;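 note: growth inhibition of KGN cells, read out with a cell viability assay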
Description: SANGER: Inhibition of human KGN cell growth in a cell viability assay.

D-392MG = conditions: Homo sapiens, D-392MG
Becker = conditions: Homo sapiens, Becker;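 note: growth inhibition of Becker cells, read out with a cell viability assay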
Description: SANGER: Inhibition of human Becker cell growth in a cell viability assay.

NCI-H1581 = conditions: Homo sapiens, NCI-H1581;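 note: cell growth inhibition read out by a viability assay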
Description: SANGER: Inhibition of human NCI-H1581 cell growth in a cell viability assay.

NCI-H1838 = conditions: Homo sapiens, NCI-H1838;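 note: growth inhibition of NCI-H1838 cells, determined with a cell viability readout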
Description: SANGER: Inhibition of human NCI-H1838 cell growth in a cell viability assay.

A101D = conditions: Homo sapiens, A101D;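 note: growth inhibition of the cell line, measured with a viability assay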
Description: SANGER: Inhibition of human A101D cell growth in a cell viability assay.

TE-5 = conditions: Homo sapiens, TE-5;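 note: inhibition of cell growth, read out by a cell viability assay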
Description: SANGER: Inhibition of human TE-5 cell growth in a cell viability assay.

MPP-89 = conditions: Homo sapiens, MPP-89;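 note: growth inhibition of human MPP-89 cells, read out with a cell viability assay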
Description: SANGER: Inhibition of human MPP-89 cell growth in a cell viability assay.

KM12 = conditions: Homo sapiens, KM12;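 note: KM12 cell growth inhibition, read out with a cell viability assay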
Description: SANGER: Inhibition of human KM12 cell growth in a cell viability assay.

GB-1 = conditions: Homo sapiens, GB-1;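 note: growth of GB-1 cells judged by a viability assay, IC50 marks the concentration inhibiting growth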
Description: SANGER: Inhibition of human GB-1 cell growth in a cell viability assay.

MMAC-SF = conditions: Homo sapiens, MMAC-SF;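 note: growth inhibition of human MMAC-SF cells, read out with a cell viability assay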
Description: SANGER: Inhibition of human MMAC-SF cell growth in a cell viability assay.

IST-SL1 = conditions: Homo sapiens, IST-SL1;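 note: growth inhibition of human IST-SL1 cells, read out with a cell viability assay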
Description: SANGER: Inhibition of human IST-SL1 cell growth in a cell viability assay.

HOP-62 = conditions: Homo sapiens, HOP-62;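 note: cell growth inhibition determined with a viability assay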
Description: SANGER: Inhibition of human HOP-62 cell growth in a cell viability assay.

NCI-H1299 = conditions: Homo sapiens, NCI-H1299;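 note: growth inhibition of human NCI-H1299 cells, read out by a cell viability assay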
Description: SANGER: Inhibition of human NCI-H1299 cell growth in a cell viability assay.

CCRF-CEM = conditions: Homo sapiens, CCRF-CEM;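 note: inhibition of CCRF-CEM cell growth, measured by a cell viability assay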
Description: SANGER: Inhibition of human CCRF-CEM cell growth in a cell viability assay.

NCI-H526 = conditions: Homo sapiens, NCI-H526;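 note: growth inhibition of the human NCI-H526 cell line, measured by a cell viability assay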
Description: SANGER: Inhibition of human NCI-H526 cell growth in a cell viability assay.

KY821 = conditions: Homo sapiens, KY821;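 note: growth inhibition of human KY821 cells, read out by a cell viability assay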
Description: SANGER: Inhibition of human KY821 cell growth in a cell viability assay.

EOL1 = conditions: Homo sapiens, EOL1;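 note: growth inhibition of EoL-1 cells, read out by a cell viability assay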
Description: SANGER: Inhibition of human EoL-1-cell cell growth in a cell viability assay.

BE-13 = conditions: Homo sapiens, BE-13;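 note: growth inhibition of human BE-13 cells, measured with a cell viability assay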
Description: SANGER: Inhibition of human BE-13 cell growth in a cell viability assay.

HH = conditions: Homo sapiens, HH
Description: SANGER: Inhibition of human HH cell growth in a cell viability assay.

NKM-1 = conditions: Homo sapiens, NKM-1;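 note: growth inhibition of NKM-1 cells, read out with a cell viability assay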
Description: SANGER: Inhibition of human NKM-1 cell growth in a cell viability assay.

KU812 cell line = conditions: Homo sapiens, KU812;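 note: growth inhibition of KU812 cells, read out with a cell viability assay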
Description: SANGER: Inhibition of human KU812 cell growth in a cell viability assay.

COR-L88 = conditions: Homo sapiens, COR-L88;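 note: growth inhibition of COR-L88 cells, read out with a cell viability assay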
Description: SANGER: Inhibition of human COR-L88 cell growth in a cell viability assay.

ML-2 = conditions: Homo sapiens, ML-2;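 note: growth inhibition of ML-2 cells, measured with a cell viability readout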
Description: SANGER: Inhibition of human ML-2 cell growth in a cell viability assay.

ALL-PO = conditions: Homo sapiens, ALL-PO;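 note: growth inhibition of ALL-PO cells, read out by a cell viability assay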
Description: SANGER: Inhibition of human ALL-PO cell growth in a cell viability assay.

HC-1 = conditions: Homo sapiens, HC-1;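 note: growth inhibition of HC-1 cells measured by a cell viability assay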
Description: SANGER: Inhibition of human HC-1 cell growth in a cell viability assay.

EW-18 = conditions: Homo sapiens, EW-18;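 note: growth inhibition of EW-18 cells, read out by a cell viability assay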
Description: SANGER: Inhibition of human EW-18 cell growth in a cell viability assay.

A3-KAW = conditions: Homo sapiens, A3-KAW;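 note: growth inhibition of human A3-KAW cells, read out with a cell viability assay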
Description: SANGER: Inhibition of human A3-KAW cell growth in a cell viability assay.

GR-ST = conditions: Homo sapiens, GR-ST
Description: SANGER: Inhibition of human GR-ST cell growth in a cell viability assay.

Compound | IC50 (KLE) [µM] | IC50 (LB831-BLC) [µM] | IC50 (LB2241-RCC) [µM] | IC50 (CGTH-W-1) [µM] | IC50 (NMC-G1) [µM] | IC50 (VA-ES-BJ) [µM] | IC50 (GI-ME-N) [µM] | IC50 (LB1047-RCC) [µM] | IC50 (ONS-76) [µM] | IC50 (NB17) [µM] | IC50 (SK-UT-1) [µM] | IC50 (ES8) [µM] | IC50 (KGN) [µM] | IC50 (D-392MG) [µM] | IC50 (Becker) [µM] | IC50 (NCI-H1581) [µM] | IC50 (NCI-H1838) [µM] | IC50 (A101D) [µM] | IC50 (TE-5) [µM] | IC50 (MPP-89) [µM] | also measured
CC(C)c1ccccc1Cc1cc(C(=O)Nc2ccc(S(=O)(=O)c3ccccc3C(C)(C)C)cc2)c(O)c(O)c1O | 1.94 | 0.745 | 0.147 | 0.186 | 0.505 | 0.0396 | 0.403 | 0.319 | 0.325 | 1.06 | 0.0287 | 0.119 | 0.436 | 1.42 | 0.242 | 0.0676 | 2.16 | 0.0875 | 0.884 | 1.27 | IC50 (LB373-MEL-D): 0.431 µM; IC50 (TGBC24TKB): 0.227 µM; IC50 (SW 962): 0.378 µM; IC50 (KALS-1): 0.253 µM; IC50 (KM12): 1.88 µM; IC50 (GB-1): 0.0987 µM; IC50 (MMAC-SF): 3.14 µM; IC50 (IST-SL1): 0.438 µM; IC50 (HOP-62): 0.365 µM; IC50 (NCI-H1299): 0.28 µM
CN(C)C(=N)NC(=N)N [METFORMIN] | > 20000 | > 20000 | > 20000 | > 20000 | > 20000 | 13300 | > 20000 | 16400 | > 20000 | > 20000 | > 20000 | 17100 | > 20000 | > 20000 | > 20000 | 14900 | > 20000 | > 20000 | > 20000 | > 20000 | IC50 (CCRF-CEM): 2720 µM; IC50 (NCI-H526): 16100 µM; IC50 (KY821): 1530 µM; IC50 (EOL1): 1820 µM; IC50 (BE-13): 18000 µM; IC50 (HH): 9630 µM; IC50 (NKM-1): 9110 µM; IC50 (KU812 cell line): 1060 µM; IC50 (COR-L88): 6380 µM; IC50 (ML-2): 1490 µM; IC50 (ALL-PO): 2900 µM; IC50 (HC-1): 4200 µM; IC50 (KM12): > 20000 µM; IC50 (GB-1): > 20000 µM; IC50 (EW-18): 5850 µM; IC50 (A3-KAW): > 20000 µM; IC50 (NCI-H1299): 10100 µM; IC50 (GR-ST): > 20000 µM
